Results from patent US7521396B2, “Substituted (thioxo)carbonylaminophenyluracils” (Bayer CropScience AG, priority 2002, dated 2009).
Marks after values point to notes of the source that are not given here.

What was measured:
[1] = tested on: weeds; assay: Pre-emergence test (Example A), damage to weeds; assay type: in vivo; conditions: soil sprayed 24 hours after sowing, rated after three weeks
Procedure: (§1) To produce a suitable preparation of active compound, 1 part by weight of active compound is mixed with the stated amount of solvent, the stated amount of emulsifier is added and the concentrate is diluted with water to the desired concentration.
Seeds of the test plants are sown in normal soil. After 24 hours, the soil is sprayed with the preparation of active compound such that the particular amount of active compound desired is applied per unit area. The concentration of active compound in the spray liquor is chosen such that the particular amount of active compound desired is applied in 1000 liters of water per hectare.
After three weeks, the degree of damage to the plants is rated in % damage in comparison to the development of the untreated control. The figures denote: • 0%=no effect (like untreated control) • 100%=total destruction

[2] = logP by HPLC on reversed-phase column (C 18), EEC Directive 79/831 Annex V.A8; assay type: physicochemical
[3] = tested on: weeds; assay: Post-emergence test (Example B), damage to weeds; assay type: in vivo; conditions: test plants of 5-15 cm sprayed, rated after three weeks
Procedure: as §1
Test plants of a height of 5-15 cm are sprayed with the preparation of active compound such that the particular amounts of active compound desired are applied per unit area. The concentration of the spray liquor is chosen such that the particular amounts of active compound desired are applied in 1000 l of water/ha.
After three weeks, the degree of damage to the plants is rated in % damage in comparison to the development of the untreated control.
The figures denote: • 0%=no effect (like untreated control) • 100%=total destruction

SMILES | logP [2] | activity against weeds (degree of damage) [1] | activity against weeds (degree of damage) [3]
Cn1c(C(F)(F)F)cc(=O)n(-c2cc(NC(=O)NC3=NCCS3)c(Br)cc2F)c1=O [Example 39] | logP = 2.16^a) | strong activity | strong activity
CONC(=O)Nc1cc(-n2c(=O)cc(C(F)(F)F)n(C)c2=O)c(F)cc1Br [Example 9] | logP = 2.19^a) | strong activity | strong activity
Cn1c(C(F)(F)F)cc(=O)n(-c2cc(NC(=O)NC3=NCCS3)c(Cl)cc2F)c1=O [Example 48] | logP = 2.11^a) | strong activity | strong activity
CN1CCCN(C(=O)Nc2cc(-n3c(=O)cc(C(F)(F)F)n(C)c3=O)c(F)cc2Br)C1=O [Example 7] | logP = 2.79^a) | strong activity | strong activity
CCCN(C(=O)Nc1cc(-n2c(=O)cc(C(F)(F)F)n(C)c2=O)c(F)cc1Br)C(C)C [Example 38] | logP = 2.79^a) | strong activity | strong activity
CN(Cc1ccco1)C(=O)Nc1cc(-n2c(=O)cc(C(F)(F)F)n(C)c2=O)c(F)cc1Br [Example 37] | logP = 2.95^a) | strong activity | strong activity
C=CCONC(=O)Nc1cc(-n2c(=O)cc(C(F)(F)F)n(C)c2=O)c(F)cc1Br [Example 26] | logP = 2.67^a) | strong activity | strong activity
Cn1c(C(F)(F)F)cc(=O)n(-c2cc(NC(=O)N3CCOC3=O)c(Br)cc2F)c1=O [Example 30] | logP = 2.59^a) | strong activity | strong activity

The next lines start with results.

logP [2] | SMILES | activity against weeds (degree of damage) [1] | activity against weeds (degree of damage) [3]
logP = 2.55^a) | CN1CCN(C(=O)Nc2cc(-n3c(=O)cc(C(F)(F)F)n(C)c3=O)c(F)cc2Br)C1=O [Example 5] | strong activity | strong activity
logP = 2.59^a) | Cn1ccsc1=NC(=O)Nc1cc(-n2c(=O)cc(C(F)(F)F)n(C)c2=O)c(F)cc1Br [Example 31] | strong activity | strong activity
logP = 2.55^a) | Cn1c(C(F)(F)F)cc(=O)n(-c2cc(NC(=O)N3CCOC3=O)c(Cl)cc2F)c1=O [Example 25] | strong activity | strong activity
logP = 2.60^a) | CON(C)C(=O)Nc1cc(-n2c(=O)cc(C(F)(F)F)n(C)c2=O)c(F)cc1Cl [Example 21] | strong activity | strong activity
logP = 2.67^a) | CON(C)C(=O)Nc1cc(-n2c(=O)cc(C(F)(F)F)n(C)c2=O)c(F)cc1Br [Example 8] | strong activity | strong activity
logP = 2.58^a) | Cn1c(C(F)(F)F)cc(=O)n(-c2cc(NC(=O)N3CCCO3)c(Cl)cc2F)c1=O [Example 24] | strong activity | strong activity
logP = 2.51^a) | Cn1ccsc1=NC(=O)Nc1cc(-n2c(=O)cc(C(F)(F)F)n(C)c2=O)c(F)cc1Cl [Example 32] | strong activity | strong activity
logP = 2.45^a) | CCONC(=O)Nc1cc(-n2c(=O)cc(C(F)(F)F)n(C)c2=O)c(F)cc1Cl [Example 27] | strong activity | strong activity
